What was measured:
S1P1/EDG1 [1] = target: T1, S1P1/EDG1 (Homo sapiens, UniProt P21453); assay: S1P1 CRE-bla CHOK1 reporter assay, inhibition of Forskolin induced cAMP; assay type: cell-based; conditions: agonist activity range, S1P1 CRE-bla CHOK1, 2 μM Forskolin; read-out: S1P1 ACTIVITY
Summary of the method: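 Read-out is a FRET β-lactamase substrate (2 h, room temperature) after 4 h, 37 °C compound treatment under 2 μM Forskolin in stable S1P1-transfected CRE-bla CHO-K1 cells. Ten-point curves; non-linear regression gives EC50 for inhibition of Forskolin-stimulated cAMP.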

S1P1 N101A = target: T2, S1P1 N101A (Homo sapiens, UniProt P21453, N101A); assay: Phosphorylated-ERK1/2 In Cell Western, S1P1 N101A mutant in CHOK1 cells; assay type: cell-based
T2 construct: expressed in transfected cells; host or cells: CHOK1
Protocol: (§1) A. Quick-change mutagenesis with PfuTurbo DNA polymerase (Stratagene) was conducted using S1P1/pcDNA3.1 (Missouri S&T cDNA Resource Centre) as the template. Primers were as follows: […]
(§2) PCR conditions were 15 cycles with the following parameters: 95° C. 30 sec, 58° C. 30 sec, 68° C. for 60 sec. All constructs were sequence verified.
(§3) CHOK1 cells were transfected using Fugene (Roche). Stably expressing mixed pools were selected with 2 mg/ml G418. Expression of functional S1P1/EDG1 receptor was confirmed by cell surface FACS with a S1P1 antibody (R&D Systems, clone 218713). Stable pools were seeded at 40,000 cells/well in a clear bottom 96-well tray, and incubated at 37° C. in 5% CO2 for 18 hrs. Cells were serum-starved in FreeStyle 293 medium (Invitrogen) for 4-6 h, then incubated for 5 min with a dose response of compound, in duplicate. Cells were fixed with 4% paraformaldehyde for 20 min, permeabilized with 0.1% Triton X-100 in PBS (4×5 min washes) and blocked for 1 h in Odyssey Blocking Buffer (LI-COR). All incubations were at room temperature. Cells were incubated for 18 h at 4° C. in Rabbit anti-Phospho-ERK1/2 (Cell Signaling #4377) and Mouse anti-ERK1/2 (Cell Signaling #9107) both diluted 1:800 in Odyssey Blocking Buffer. Plates were washed with 0.1% Tween-20 in PBS and then incubated with Odyssey Blocking Buffer containing IRDye 680-labeled goat anti-rabbit antibody (#926-32221; diluted 1/500) and IRDye 800CW-labeled goat anti-mouse antibody (#926-32210; diluted 1/1000). Plates were washed with 0.1% Tween-20 in PBS, all liquid was removed from the wells and the plates were scanned using a LICOR Odyssey scanner. The phospho-ERK1/2 signal was normalized to the ERK1/2 signal. Data was analyzed by non-linear regression using GraphPad Prism to determine the EC50 of binding.

S1P1/EDG1 [2] = target: T1, S1P1/EDG1; assay: Phosphorylated-ERK1/2 In Cell Western, wild type S1P1 in CHOK1 cells; assay type: cell-based
Protocol: as §3, with “The phospho-ERK1/2 signal was normalized to the ERK1/2 signal.” left out

S1P1 R120A/E121A = target: T3, S1P1 R120A/E121A (Homo sapiens, UniProt P21453, E121A/R120A); assay: Phosphorylated-ERK1/2 In Cell Western, S1P1 R120A/E121A mutant in CHOK1 cells; assay type: cell-based
T3 construct: expressed in transfected cells; host or cells: CHOK1
Protocol: as §1, §2, §3

S1P1 W269L = target: T4, S1P1 W269L (Homo sapiens, UniProt P21453, W269L); assay: Phosphorylated-ERK1/2 In Cell Western, S1P1 W269L mutant; assay type: cell-based
T4 construct: expressed in transfected cells; host or cells: CHOK1
Protocol: as §3, with “The phospho-ERK1/2 signal was normalized to the ERK1/2 signal.” left out, “binding. […]” for “binding.”

peripheral T-cell counts = assay: Lymphopenia in rats, 3-5 day multiple dose regimen; assay type: in vivo, rat; conditions: female rats, oral, 24 h after final dose of a 3-5 day multiple dose regimen
Protocol: In rats: Female rats (Simonsen Laboratories, Gilroy Calif.) were housed in an ALAAC accredited facility and the research was approved by the facilities Institutional Animal Care and Use Committee (IACUC). The animals were acclimated to the laboratory for at least 5 days prior to initiation of experiments. Rats (n=3/compound/time-point) were dosed by oral gavage with 1 mg/kg compound formulated in a vehicle consisting of 5% DMS0/5% Tween 20 and 90% 0.1N HCL. Control rats were dosed PO with the vehicle. Whole blood was collected from isoflurane anesthetized rats via the retro-orbital sinus and terminal samples were collected by cardiac puncture into EDTA. Whole blood was incubated with mouse anti-rat CD32 (BD #550271), PE-mouse anti-rat CD45R/B220 (BD #554881), PECy5-mouse anti-rat CD4 (BD #554839), and APC-mouse anti-rat CD8a (eBioscience #17-0084) for 30 minutes on ice. Red blood cells were lysed using BD Pharm Lyse Lysing buffer (#555899) and white blood cells were analyzed with a BD FACSArray. Lymphopenia was expressed as the % of white blood cells that were CD4 or CD8 positive T cells. The overall lymphopenia response over 24 h was estimated by calculating the area under the effect curve (AUEC) using the linear trapezoidal rule.
(§4) The compounds listed in Table 6 were formulated as suspensions in a vehicle consisting of 0.5% carboxymethyl cellulose (Acros Organics) in purified water (pH adjusted to ˜2.2 with hydrochloric acid). The same formulation was used in the rat lymphopenia and toxicology studies described below. The concentration of each compound in suspension was verified to be within ±10% of the target concentration by HPLC-UV.
Prior to the conduct of toxicology studies, the effect of three to five daily doses of each compound on peripheral T-cell counts of female rats was determined (see lymphopenia measurements in rats above). In these lymphopenia studies, blood samples were collected onto EDTA at intervals after the final study dose. The collection times were not identical for each study, however, all studies included a sample collected 24 hours after the final dose. The lymphopenia data was used as a biomarker to select equally pharmacologically active doses for the subsequent toxicology study. […] The high dose in the toxicology study represented a ≧20-fold increment over the low dose.
(§5) The dose producing a 10% increase in lung to body weight ratio was interpolated from a plot of dose versus lung to body weight. The lymphopenia response was measured 24 hours following the final dose of a 3-5 day multiple dose regimen.

S1P4 = target: T5, S1P4 (Homo sapiens, UniProt O95977); assay: Specificity over other S1P receptors: S1P4-bla TANGO U2OS assay; assay type: cell-based; conditions: read-out: S1P4 agonist value (EC50)
T5 construct: Tango fusion (own knowledge: protease cleavage site plus GAL4-VP16 transcription factor at the receptor's C-terminus); host or cells: U2OS (Tango -bla)
T5 sequence (O95977 1-384): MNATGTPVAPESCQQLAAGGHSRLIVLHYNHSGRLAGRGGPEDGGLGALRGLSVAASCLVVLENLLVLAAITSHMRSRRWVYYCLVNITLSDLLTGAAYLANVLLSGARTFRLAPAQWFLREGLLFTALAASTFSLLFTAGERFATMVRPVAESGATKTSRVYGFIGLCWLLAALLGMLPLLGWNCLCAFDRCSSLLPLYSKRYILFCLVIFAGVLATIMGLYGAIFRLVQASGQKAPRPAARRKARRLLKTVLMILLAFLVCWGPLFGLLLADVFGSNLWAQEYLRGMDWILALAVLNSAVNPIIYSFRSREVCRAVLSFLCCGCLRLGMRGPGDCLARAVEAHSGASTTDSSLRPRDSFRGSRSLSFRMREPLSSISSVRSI
Protocol: (§6) Cells were seeded into 384-well black wall/clear bottom plates at 10^4 cells/well/19.5 μl assay media (DMEM-phenol free, 0.5% charcoal/dextran stripped serum, 2 mM glutamine, 0.1 mM NEAA, 1 mM Na-Pyruvate, 25 mM Hepes) and incubated for 18 hrs at 37° C. in 5% CO2. Dose response curves (10-point) were generated in 10 mM Hepes, 0.1% Pluronic F127, in the presence of Forskolin. Cells were treated with 0.5 μl compound in the presence of 2 μM Forskolin for 4 hrs at 37° C. The FRET-based β-lactamase fluorescent substrate (LiveBLAzer™-FRET B/G Loading Kit CC4-AM; Invitrogen) was prepared according to manufacturer's directions, and incubated with cells for 2 hrs at room temperature. Plates were read at Ex:410/Em:458 and Ex:410/Em:522, and the response ratio determined. Data was analyzed by non-linear regression to determine the EC50 for inhibition of Forskolin induced cAMP.
(§7) To assess compound specificity on other S1P receptors the following cell lines were used: S1P2 CRE-bla CHOK1, S1P3-Gα15 NFAT-bla HEK293T (Invitrogen), S1P4-bla TANGO U2OS (Invitrogen), S1P5-bla TANGO U2OS (Invitrogen). The same assay set up for S1P1 was used but without Forskolin. S1P4 and S1P5 assays were performed in FreeStyle Expression medium (Invitrogen). S1P5 cells were incubated for 48 hrs in prior to treatment with compound.

S1P3 = target: T6, S1P3 (Homo sapiens, UniProt Q99500); assay: Specificity over other S1P receptors: S1P3-Gα15 NFAT-bla HEK293T reporter assay; assay type: cell-based; conditions: without Forskolin, read-out: S1P3 agonist value (EC50)
T6 construct: host or cells: NFAT-bla HEK293T
Protocol: as §6, §7

S1P5 = target: T7, S1P5 (Homo sapiens, UniProt Q9H228); assay: Specificity over other S1P receptors: S1P5-bla TANGO U2OS assay; assay type: cell-based; conditions: read-out: S1P5 agonist value (EC50)
T7 construct: Tango fusion (own knowledge: protease cleavage site plus GAL4-VP16 transcription factor at the receptor's C-terminus); host or cells: U2OS (Tango -bla)
Protocol: as §6, §7

[3] = Evaluation of therapeutic index in rats: 5 or 14 day toxicology study, lung to body weight ratio; assay type: in vivo, Sprague-Dawley rat
Protocol: All studies were conducted in non-fasted male and female Sprague-Dawely rats (Simonsen Laboratories). Rats were housed in an AAALAC accredited facility and the research was approved by the facilities Institutional Animal Care and Use Committee (IACUC). The animals were acclimated to the laboratory for at least 5 days prior to initiation of experiments.
as §4
In the toxicology studies, three male and three female rats per group were assigned to dosing groups using body weight based randomization. A control group in each study received vehicle. All animals were dosed orally by gavage on 5 or 14-consecutive days at a dose volume of 5 mL/kg/day. The animals were observed daily for any manifestations of adverse effect. Twenty-four hours after the final study dose, the rats were anesthetized with isoflurane and a terminal blood sample was taken by intra-cardiac puncture for hematology and clinical chemistry evaluation (IDEXX Laboratories, Sacramento, Calif.). The lungs with trachea were collected, weighed, and then prepared for histology by perfusion with 10% neutral buffered formalin via the trachea. The internally fixed lungs were then preserved in 10% neutral buffered formalin and submitted for histological examination (IDEXX).
The dose of each compound resulting in a 10% increase in the lung to terminal body weight ratio was estimated for each compound by linear interpolation. The therapeutic index was estimated as the ratio of the dose producing 10% lung weight increase to the dose producing 50% T-Cell depletion.
as §5

S1P2 = target: T8, S1P2 (Homo sapiens, UniProt O95136); assay: Specificity over other S1P receptors: S1P2 CRE-bla CHOK1 reporter assay; assay type: cell-based; conditions: S1P2 CRE-bla CHOK1, without Forskolin; read-out: S1P2 agonist value (EC50)
T8 construct: expressed in transfected cells; host or cells: CRE-bla CHOK1
Protocol: as §6, §7

[4] = system: CD4 or CD8 positive T cells; assay: Lymphopenia in mice; assay type: in vivo; conditions: female C57BL6 mice, 1 mg/kg oral gavage, area under the effect curve over 24 h
Protocol: In mice: Female C57BL6 mice (Simonsen Laboratories, Gilroy Calif.) were housed in an ALAAC accredited facility and the research was approved by the facilities Institutional Animal Care and Use Committee (IACUC). The animals were acclimated to the laboratory for at least 5 days prior to initiation of experiments. Mice (n=3/compound/time-point) were dosed by oral gavage with 1 mg/kg compound formulated in a vehicle consisting of 5% DMSO/5% Tween 20 and 90% 0.1N HCl. Control mice were dosed PO with the vehicle. Terminal whole blood samples were collected from isoflurane anesthetized mice by cardiac puncture into EDTA. Whole blood was incubated with rat anti-mouse CD16/CD32 (Mouse BD Fc Block, #553141), PE-Rat anti-mouse CD45R/B220 (BD #553089), APC-Cy7-Rat anti-mouse CD8a (BD #557654), and Alexa Fluor647-Rat anti-mouse CD4 (BD #557681) for 30 min on ice. Red blood cells were lysed using BD Pharm Lyse Lysing buffer (#555899) and white blood cells were analyzed by FACS. Lymphopenia was expressed as the % of white blood cells that were CD4 or CD8 positive T cells. The overall lymphopenia response over 24 h was estimated by calculating the area under the effect curve (AUEC) using the linear trapezoidal rule.

T2 sequence (P21453 whole entry N101A): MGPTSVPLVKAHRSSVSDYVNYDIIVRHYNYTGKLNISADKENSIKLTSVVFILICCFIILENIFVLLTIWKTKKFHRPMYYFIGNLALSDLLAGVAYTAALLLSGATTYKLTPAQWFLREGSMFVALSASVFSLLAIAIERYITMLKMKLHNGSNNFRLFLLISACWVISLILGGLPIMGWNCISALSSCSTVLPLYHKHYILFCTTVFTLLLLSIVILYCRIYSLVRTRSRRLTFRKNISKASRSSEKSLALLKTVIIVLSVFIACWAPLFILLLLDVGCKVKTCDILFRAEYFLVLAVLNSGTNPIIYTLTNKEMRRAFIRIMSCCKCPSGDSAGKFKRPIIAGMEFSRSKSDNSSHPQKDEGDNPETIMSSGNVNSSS
T1 sequence (P21453 whole entry): as the sequence (P21453 whole entry N101A) above, with A101N counted along it
T3 sequence (P21453 whole entry R120A/E121A): as the sequence (P21453 whole entry N101A) above, with A101N, R120A, E121A counted along it
T8 sequence (O95136 whole entry, species assumed): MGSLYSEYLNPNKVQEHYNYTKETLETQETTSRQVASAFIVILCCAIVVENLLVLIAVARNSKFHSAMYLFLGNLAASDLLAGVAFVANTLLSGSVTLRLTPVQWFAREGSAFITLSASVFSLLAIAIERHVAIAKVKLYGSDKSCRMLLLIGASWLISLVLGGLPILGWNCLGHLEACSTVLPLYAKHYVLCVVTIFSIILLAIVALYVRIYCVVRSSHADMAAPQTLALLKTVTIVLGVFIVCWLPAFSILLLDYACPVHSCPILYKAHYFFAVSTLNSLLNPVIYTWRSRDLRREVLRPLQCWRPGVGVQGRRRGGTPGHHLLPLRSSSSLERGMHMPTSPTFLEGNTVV
T7 sequence (Q9H228 whole entry, the tested form may be a part): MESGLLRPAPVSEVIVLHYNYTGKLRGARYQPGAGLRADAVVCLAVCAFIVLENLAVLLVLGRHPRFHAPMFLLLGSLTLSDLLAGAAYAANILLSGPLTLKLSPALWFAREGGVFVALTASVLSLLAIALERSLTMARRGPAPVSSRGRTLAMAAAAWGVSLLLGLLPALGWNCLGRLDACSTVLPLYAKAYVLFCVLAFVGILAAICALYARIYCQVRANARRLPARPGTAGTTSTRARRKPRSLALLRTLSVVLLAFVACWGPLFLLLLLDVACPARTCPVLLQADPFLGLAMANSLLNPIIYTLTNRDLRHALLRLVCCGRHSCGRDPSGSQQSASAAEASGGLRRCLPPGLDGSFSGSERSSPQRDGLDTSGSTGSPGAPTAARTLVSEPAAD
T4 sequence (P21453 whole entry W269L): as the sequence (P21453 whole entry N101A) above, with A101N, W269L counted along it
T6 sequence (Q99500 whole entry): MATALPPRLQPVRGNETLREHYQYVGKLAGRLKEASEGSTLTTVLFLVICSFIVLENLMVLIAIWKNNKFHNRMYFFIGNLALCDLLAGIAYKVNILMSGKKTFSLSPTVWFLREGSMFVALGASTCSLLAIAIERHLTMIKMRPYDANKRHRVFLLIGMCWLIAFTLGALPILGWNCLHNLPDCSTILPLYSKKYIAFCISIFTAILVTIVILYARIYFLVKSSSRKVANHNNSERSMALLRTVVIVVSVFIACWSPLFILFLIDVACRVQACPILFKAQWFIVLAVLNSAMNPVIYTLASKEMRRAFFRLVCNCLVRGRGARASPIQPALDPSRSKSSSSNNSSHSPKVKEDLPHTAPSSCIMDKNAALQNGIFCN

SMILES | EC50 (S1P1/EDG1 [1]) [nM] | Effect of mutation on binding of compound (in words) (S1P1 N101A; S1P1 N101A) | Fold change in EC50 compared to wild type S1P1 (S1P1 N101A; S1P1 variant N101A, phospho-ERK1/2) | Phosphorylation of ERK1/2 by S1P1 agonist (in words) (S1P1/EDG1 [2]) | Effect of mutation on binding of compound (in words) (S1P1 R120A/E121A; S1P1 R120A/E121A) | Fold change in EC50 compared to wild type S1P1 (S1P1 R120A/E121A; S1P1 variant R120A/E121A, phospho-ERK1/2) | Effect of mutation on binding of compound (in words) (S1P1 W269L) | Dose Producing 50% lymphopenia (peripheral T-cell counts) [mg/kg] | EC50 (S1P4) [µM] | EC50 (S1P3) [µM] | EC50 (S1P5) [µM] | Dose Resulting in 10% increase in lung weight ([3]; rats, oral, 5 or 14 consecutive days, interpolated from dose versus lung to body weight) [mg/kg] | TI 14 days ([3]; therapeutic index: dose producing 10% lung weight increase / dose producing 50% T-cell depletion, 14 day toxicology study in rats) | EC50 (S1P2) [µM] | Mouse Lymphopenia (AUEC) [4]
CC(C)Oc1ccc(-c2nc(-c3cccc4c3CCC4NCCC(=O)O)no2)cc1C#N (racemic) [Compound 38] | < 0.05 | had no effect on binding | 2 | induce phosphorylation of ERK1/2 | diminishes binding | 11 | abolishes binding | – | – | – | – | – | – | – | –
CC(C)Oc1ccc(-c2nc(-c3cccc4c3CC[C@@H]4NCCO)no2)cc1C#N [Compound 86, (S)-5-(3-(1-(2-hydroxyethylamino)-2,3-dihydro-1H-inden-4-yl)-1,2,4-oxadiazol-5-yl)-2-isopropoxy benzonitrile] | – | – | – | – | – | – | – | 0.15 | 4.19 | 9.94 | 0.0552 | 2.7 | 18 | 9.56 | 1342
